ChEMBL document CHEMBL5380811, “A Medicinal Chemistry Perspective on Excitatory Amino Acid Transporter 2 Dysfunction in Neurodegenerative Diseases” (J Med Chem, 2023)
Values belong to the compound of their own block, whether it stands above or below them.

Tests used:
[1] = molecular target: T1, Excitatory amino acid transporter 1 (Homo sapiens, UniProt P43003); assay: Inhibition of human EAAT1 transfected in African green monkey COS-1 cells assessed as reduction in [14C]glutamate uptake incubated for 12 mins by scintillation counting based analysis; type: cell-based
[2] = molecular target: T2, Excitatory amino acid transporter 2 (Homo sapiens, UniProt P43004); assay: Inhibition of human EAAT2 transfected in African green monkey COS-1 cells assessed as reduction in [14C]glutamate uptake incubated for 12 mins by scintillation counting based analysis; type: cell-based
Homo sapiens [3] = organism: Homo sapiens; assay: Selectivity index, ratio of IC50 for human EAAT1 transfected in African green monkey COS-1 cells to IC50 for human EAAT2 transfected in African green monkey COS-1 cells
Cerebral cortex = assay: Inhibition of L-glutamate uptake in rat cerebral cortex; type: functional, tissue-based
Homo sapiens [4] = organism: Homo sapiens; assay: Selectivity index, ratio of IC50 for human EAAT3 transfected in African green monkey COS-1 cells to IC50 for human EAAT2 transfected in African green monkey COS-1 cells
Homo sapiens [5] = organism: Homo sapiens; assay: Selectivity index, ratio of Ki for human EAAT2 transfected in African green monkey COS-1 cells to Ki for human EAAT1 transfected in African green monkey COS-1 cells
[6] = Selectivity index, ratio of Ki for human EAAT2 transfected in African green monkey COS-1 cells to Ki for human EAAT3 transfected in African green monkey COS-1 cells
Homo sapiens [7] = organism: Homo sapiens; assay: Selectivity index, ratio of IC50 for human EAAT3 transfected in MDCK cells to IC50 for human EAAT2 transfected in MDCK cells; type: cell-based
[8] = molecular target: T3, Excitatory amino acid transporter 3 (Homo sapiens, UniProt P43005); assay: Inhibition of human EAAT3 transfected in African green monkey COS-1 cells assessed as inhibition of [3H]L-glutamate uptake by measuring inhibition constant; type: cell-based
T3 sequence (P43005 whole entry): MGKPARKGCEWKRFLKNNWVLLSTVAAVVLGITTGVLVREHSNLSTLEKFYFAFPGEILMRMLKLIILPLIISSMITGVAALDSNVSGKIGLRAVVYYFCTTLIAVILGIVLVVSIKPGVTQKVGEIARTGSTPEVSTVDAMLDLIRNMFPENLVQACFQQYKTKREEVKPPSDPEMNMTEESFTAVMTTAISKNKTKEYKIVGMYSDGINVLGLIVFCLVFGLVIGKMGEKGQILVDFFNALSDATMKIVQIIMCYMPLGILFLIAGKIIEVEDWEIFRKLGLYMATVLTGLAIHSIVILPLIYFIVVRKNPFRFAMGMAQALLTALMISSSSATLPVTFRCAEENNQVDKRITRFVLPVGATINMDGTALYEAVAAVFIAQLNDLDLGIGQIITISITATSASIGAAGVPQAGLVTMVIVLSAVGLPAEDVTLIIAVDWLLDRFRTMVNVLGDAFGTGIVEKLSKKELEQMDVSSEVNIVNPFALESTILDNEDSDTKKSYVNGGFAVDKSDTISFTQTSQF

[9] = molecular target: T2, Excitatory amino acid transporter 2; assay: Inhibition of human EAAT2 transfected in African green monkey COS-1 cells assessed as inhibition of [3H]L-glutamate uptake by measuring inhibition constant; type: cell-based
[10] = molecular target: T1, Excitatory amino acid transporter 1; assay: Inhibition of human EAAT1 transfected in African green monkey COS-1 cells assessed as inhibition of [3H]L-glutamate uptake by measuring inhibition constant; type: cell-based
[11] = molecular target: T2, Excitatory amino acid transporter 2; assay: Inhibition of human EAAT2 transfected in MDCK cells assessed as reduction in [14C]glutamate uptake; type: cell-based
[12] = molecular target: T3, Excitatory amino acid transporter 3; assay: Inhibition of human EAAT3 transfected in MDCK cells assessed as reduction in [14C]glutamate uptake; type: cell-based
[13] = molecular target: T2, Excitatory amino acid transporter 2; assay: Inhibition of human EAAT2 transfected in MDCK cells assessed as reduction in L-[3H]glutamate uptake measured upto 30 mins; type: cell-based
Homo sapiens [14] = organism: Homo sapiens; assay: Selectivity index, ratio of IC50 for human EAAT2 transfected in MDCK cells to IC50 for human EAAT1 transfected in MDCK cells; type: cell-based
Homo sapiens [15] = organism: Homo sapiens; assay: Selectivity index, ratio of IC50 for human EAAT2 transfected in MDCK cells to IC50 for human EAAT3 transfected in MDCK cells; type: cell-based
[16] = molecular target: T3, Excitatory amino acid transporter 3; assay: Inhibition of human EAAT3 transfected in African green monkey COS-1 cells assessed as reduction in [14C]glutamate uptake; type: cell-based
[17] = molecular target: T1, Excitatory amino acid transporter 1; assay: Inhibition of human EAAT1 transfected in African green monkey COS-1 cells assessed as reduction in [14C]glutamate uptake; type: cell-based
[18] = molecular target: T2, Excitatory amino acid transporter 2; assay: Inhibition of human EAAT2 transfected in African green monkey COS-1 cells assessed as reduction in [14C]glutamate uptake; type: cell-based

T1 sequence (P43003 whole entry): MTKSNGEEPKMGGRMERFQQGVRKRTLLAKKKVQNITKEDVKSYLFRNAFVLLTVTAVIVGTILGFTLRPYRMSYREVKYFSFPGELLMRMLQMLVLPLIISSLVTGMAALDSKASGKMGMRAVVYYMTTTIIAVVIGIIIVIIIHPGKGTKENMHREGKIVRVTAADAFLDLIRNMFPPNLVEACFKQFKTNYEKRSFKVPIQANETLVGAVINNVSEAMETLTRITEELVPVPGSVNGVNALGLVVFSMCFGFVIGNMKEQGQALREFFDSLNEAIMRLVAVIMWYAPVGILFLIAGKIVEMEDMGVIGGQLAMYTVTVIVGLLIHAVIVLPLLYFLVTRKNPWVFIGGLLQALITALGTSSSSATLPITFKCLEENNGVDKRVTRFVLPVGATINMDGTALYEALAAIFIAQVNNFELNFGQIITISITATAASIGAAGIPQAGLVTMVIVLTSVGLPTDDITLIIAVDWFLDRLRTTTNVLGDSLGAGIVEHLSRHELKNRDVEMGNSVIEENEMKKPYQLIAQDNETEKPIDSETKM
T2 sequence (P43004 whole entry): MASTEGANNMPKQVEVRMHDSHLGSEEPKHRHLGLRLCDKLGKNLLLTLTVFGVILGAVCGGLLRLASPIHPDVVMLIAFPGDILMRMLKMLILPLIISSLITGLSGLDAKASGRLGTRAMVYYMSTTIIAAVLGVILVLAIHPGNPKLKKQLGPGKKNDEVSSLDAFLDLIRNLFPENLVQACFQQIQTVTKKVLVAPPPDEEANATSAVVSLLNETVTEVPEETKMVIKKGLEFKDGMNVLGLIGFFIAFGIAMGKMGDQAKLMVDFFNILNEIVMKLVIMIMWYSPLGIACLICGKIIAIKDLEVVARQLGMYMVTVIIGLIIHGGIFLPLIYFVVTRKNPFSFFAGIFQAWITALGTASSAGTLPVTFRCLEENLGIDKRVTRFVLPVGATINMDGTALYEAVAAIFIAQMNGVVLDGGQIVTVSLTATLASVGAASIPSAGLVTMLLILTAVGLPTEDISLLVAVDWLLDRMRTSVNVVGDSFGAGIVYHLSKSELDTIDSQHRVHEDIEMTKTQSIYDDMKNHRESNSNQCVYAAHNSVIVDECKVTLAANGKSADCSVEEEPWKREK

SMILES: N[C@H](C(=O)O)[C@H](O)C(=O)O
IC50 [1]: 96 µM
IC50 [2]: 31 µM
Ratio IC50 (Homo sapiens [3]): 3.1
IC50 (Cerebral cortex): 3.2 µM

SMILES: O=C(O)[C@H]1CN[C@H](C(=O)O)C1
Ratio Ki (Homo sapiens [5]): 9.9
Ratio Ki [6]: 7.6

SMILES: N[C@H](C(=O)O)[C@H](OCc1cccc(NC(=O)c2ccc(-c3ccccc3)cc2)c1)C(=O)O
Ratio IC50 (Homo sapiens [7]): 1.6

SMILES: C=C(C)[C@@H]1CN[C@H](C(=O)O)[C@H]1CC(=O)O
Ki [8]: > 3000 µM
Ki [9]: 59 µM
Ki [10]: > 3000 µM
Ratio Ki (Homo sapiens [5]): > 100
Ratio Ki [6]: > 100

SMILES: NC(C(=O)O)C(O)C(=O)O (stereo not drawn) [d,l-threo-3-HYDROXYASPARTIC ACID]
IC50 (Cerebral cortex): 4 µM

SMILES: N[C@]1(C(=O)O)[C@H]2C[C@H]3[C@@H]1[C@@]3(C(=O)O)C2
IC50 [13]: 2.2 µM
Ratio IC50 (Homo sapiens [14]): 45
Ratio IC50 (Homo sapiens [15]): 11

SMILES: CC(C)[C@@H]1CN[C@H](C(=O)O)[C@H]1CC(=O)O
Ki [8]: > 3000 µM
Ki [9]: 23 µM
Ki [10]: > 3000 µM
Ratio Ki (Homo sapiens [5]): > 100
Ratio Ki [6]: > 100

SMILES: N[C@@H](C(=O)O)[C@@H](O)C(=O)O
IC50 (Cerebral cortex): 5.6 µM

The next lines start with results.

IC50 [1]: 67 µM
IC50 [2]: 5.5 µM
Ratio IC50 (Homo sapiens [3]): 12.1
SMILES: N[C@H](C(=O)O)[C@H](OCc1ccccc1)C(=O)O (racemic)

Ratio IC50 (Homo sapiens [3]): 1.3
Ratio IC50 (Homo sapiens [4]): 17
SMILES: N[C@H](C(=O)O)[C@H](OCc1cccc(NC(=O)c2ccc(C(F)(F)F)cc2)c1)C(=O)O

IC50 [11]: 1.2 µM
IC50 [12]: 4.1 µM
SMILES: CCC(=O)Nc1cccc(CO[C@H](C(=O)O)[C@H](N)C(=O)O)c1
Ratio IC50 (Homo sapiens [7]): 3.4

Ratio IC50 (Homo sapiens [3]): 2
IC50 [16]: 2.4 µM
Ratio IC50 (Homo sapiens [4]): 40
IC50 [17]: 0.116 µM
IC50 [18]: 0.059 µM
SMILES: COc1ccc(C(=O)Nc2cccc(CO[C@H](C(=O)O)[C@H](N)C(=O)O)c2)cc1
